Laboratory results as given in patent US4684664A, “Derivatives of β-(4-isocyano-1,2,3,4-diepoxycyclopentyl) acrylic acid” (Kureha Kagaku Kogyo Kabushiki Kaisha, priority 1984, dated 1987).
In brackets after ≈: the same amount, converted by molar mass.

How the values were obtained:
Type in all cases: cell-based
[1] = system: Staphylococcus aureus FDA 209PJc-1; assay: Antibacterial activity, agar-dilution MIC, organism No. 1; details: Staphylococcus aureus, FDA209PJC1; Organism No. 1, bouillon-agar; read-out: Minimum Inhibitory Concentration
Outline: (§1)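 Read-out is the minimum inhibitory concentration, given as μg/ml of the culture medium, obtained by agar dilution using bouillon agar.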

[2] = system: Staphylococcus aureus Terajima; assay: Antibacterial activity, agar-dilution MIC, organism No. 2; details: Staphylococcus aureus; Organism No. 2, bouillon-agar; read-out: Minimum Inhibitory Concentration
Outline: as §1

[3] = system: Staphylococcus aureus MS 353; assay: Antibacterial activity, agar-dilution MIC, organism No. 3; details: Staphylococcus aureus, MS353; Organism No. 3, bouillon-agar; read-out: Minimum Inhibitory Concentration
Outline: as §1

[4] = system: Escherichia coli NIHJ-JC-2; assay: Antibacterial activity, agar-dilution MIC, organism No. 5; details: Escherichia coli, NIHJJC2; Organism No. 5, bouillon-agar; read-out: Minimum Inhibitory Concentration
Outline: as §1

[5] = system: Escherichia coli K12 C600 IAM 1264; assay: Antibacterial activity, agar-dilution MIC, organism No. 6; details: Escherichia coli, IAM1264; Organism No. 6, bouillon-agar; read-out: Minimum Inhibitory Concentration
Outline: as §1

[6] = system: Klebsiella pneumoniae PCI-602; assay: Antibacterial activity, agar-dilution MIC, organism No. 7; details: Klebsiella pneumoniae, PCI602; Organism No. 7, bouillon-agar; read-out: Minimum Inhibitory Concentration
Outline: as §1

[7] = system: Salmonella typhimurium IID 971; assay: Antibacterial activity, agar-dilution MIC, organism No. 8; details: Salmonella enterica; Organism No. 8, bouillon-agar; read-out: Minimum Inhibitory Concentration
Outline: as §1

Salmonella typhi 901 = assay: Antibacterial activity, agar-dilution MIC, organism No. 9; details: Salmonella enterica, TYPHI, read-out: Minimum Inhibitory Concentration
Outline: as §1

[8] = system: Salmonella paratyphi-A 1015; assay: Antibacterial activity, agar-dilution MIC, organism No. 10; details: Salmonella enterica, PARATYPHI, read-out: Minimum Inhibitory Concentration
Outline: as §1

[9] = system: Salmonella shottmuelleri 8006; assay: Antibacterial activity, agar-dilution MIC, organism No. 11; details: Salmonella, 8006; Organism No. 11, bouillon-agar; read-out: Minimum Inhibitory Concentration
Outline: as §1

[10] = system: Salmonella enteritidis G 14; assay: Antibacterial activity, agar-dilution MIC, organism No. 12; details: Salmonella enterica, ENTERITIDIS; Organism No. 12, bouillon-agar; read-out: Minimum Inhibitory Concentration
Outline: as §1

[11] = system: Serratia marcescens IAM 1184; assay: Antibacterial activity, agar-dilution MIC, organism No. 13; details: Serratia marcescens, IAM1184; Organism No. 13, bouillon-agar; read-out: Minimum Inhibitory Concentration
Source text: Agar-dilution method was used for determination of the antibacterial activity and antifungal activity while using bouillon-agar culture medium, and the minimum inhibitory concentration of the specimen was expressed by μg/ml of the culture medium.

[12] = system: Bacillus subtilis ATCC 6633; assay: Antibacterial activity, agar-dilution MIC, organism No. 14; details: Bacillus subtilis, ATCC6633; Organism No. 14, bouillon-agar; read-out: Minimum Inhibitory Concentration
Outline: as §1

[13] = system: Pseudomonas aeruginosa IFO 3445; assay: Antibacterial activity, agar-dilution MIC, organism No. 15; details: Pseudomonas aeruginosa, IFO3445; Organism No. 15, bouillon-agar; read-out: Minimum Inhibitory Concentration
Outline: as §1

[14] = system: Pseudomonas aeruginosa NCTC 10490; assay: Antibacterial activity, agar-dilution MIC, organism No. 16; details: Pseudomonas aeruginosa, NCTC10490; Organism No. 16, bouillon-agar; read-out: Minimum Inhibitory Concentration
Outline: as §1

[15] = system: Pseudomonas aeruginosa PAO 1; assay: Antibacterial activity, agar-dilution MIC, organism No. 17; details: Pseudomonas aeruginosa, PAO1; Organism No. 17, bouillon-agar; read-out: Minimum Inhibitory Concentration
Outline: as §1

[16] = system: Proteus morganii IFO 3848; assay: Antibacterial activity, agar-dilution MIC, organism No. 18; details: Morganella morganii, IFO3848; Organism No. 18, bouillon-agar; read-out: Minimum Inhibitory Concentration
Outline: as §1

[17] = system: Proteus mirabilis IFO 3849; assay: Antibacterial activity, agar-dilution MIC, organism No. 19; details: Proteus mirabilis, IFO3849; Organism No. 19, bouillon-agar; read-out: Minimum Inhibitory Concentration
Outline: as §1

Proteus vulgaris OX-19 = assay: Antibacterial activity, agar-dilution MIC, organism No. 20; details: Proteus vulgaris, OX19; Organism No. 20, bouillon-agar; read-out: Minimum Inhibitory Concentration
Outline: as §1

Proteus vulgaris HX-19 = assay: Antibacterial activity, agar-dilution MIC, organism No. 21; details: Proteus vulgaris, HX19; Organism No. 21, bouillon-agar; read-out: Minimum Inhibitory Concentration
Outline: as §1

[18] = system: Proteus rettgeri IFO 3850; assay: Antibacterial activity, agar-dilution MIC, organism No. 22; details: Providencia rettgeri, IFO3850; Organism No. 22, bouillon-agar; read-out: Minimum Inhibitory Concentration
Outline: as §1

[19] = system: Enterobacter aerogenes ATCC 13048; assay: Antibacterial activity, agar-dilution MIC, organism No. 23; details: Klebsiella aerogenes, ATCC13048; Organism No. 23, bouillon-agar; read-out: Minimum Inhibitory Concentration
Outline: as §1

Enterobacter cloacae 963 = assay: Antibacterial activity, agar-dilution MIC, organism No. 24; details: Enterobacter cloacae, 963; Organism No. 24, bouillon-agar; read-out: Minimum Inhibitory Concentration
Outline: as §1

[20] = system: Micrococcus luteus ATCC 9341; assay: Antibacterial activity, agar-dilution MIC, organism No. 25; details: Micrococcus luteus, ATCC9341; Organism No. 25, bouillon-agar; read-out: Minimum Inhibitory Concentration
Outline: as §1

[21] = system: Streptococcus pyogenes IFO 3340; assay: Antibacterial activity, agar-dilution MIC, organism No. 26; details: Streptococcus pyogenes, IFO3340; Organism No. 26, bouillon-agar; read-out: Minimum Inhibitory Concentration
Outline: as §1

[22] = system: Streptococcus faecium IFO 3826; assay: Antibacterial activity, agar-dilution MIC, organism No. 27; details: Enterococcus faecium, IFO3826; Organism No. 27, bouillon-agar; read-out: Minimum Inhibitory Concentration
Outline: as §1

[23] = system: Mycoplasma pneumoniae IID817; assay: Antimycoplasmal activity, MIC by phenol red colour change, organism No. 28; details: Mycoplasma, IID817; Organism No. 28, PPLO broth + 1% glucose, 37° C.; read-out: Minimum Inhibitory Concentration (MIC)
Description: Mycoplasma pneumoniae IID817 was used as the test microorganism in a culture medium prepared by adding 1% of glucose to "PPLO broth (manufactured by Difco Co.) liquid culture medium" at 37° C. with phenol red as an indicator, thereby culturing the test microorganism.

[24] = system: Candida albicans IAM 4905; assay: Antifungal activity, agar-dilution MIC, organism No. 29; details: Candida albicans, IAM4905; Organism No. 29, bouillon-agar; read-out: Minimum Inhibitory Concentration
Outline: as §1

[25] = system: Aspergillus niger IFO 6342; assay: Antifungal activity, agar-dilution MIC, organism No. 30; details: Aspergillus niger, IFO6342; Organism No. 30, bouillon-agar; read-out: Minimum Inhibitory Concentration
Outline: as §1

[26] = system: Streptococcus pyogenes Cook; assay: Antibacterial activity, agar-dilution MIC, organism No. 4; details: Streptococcus pyogenes; Organism No. 4, bouillon-agar; read-out: Minimum Inhibitory Concentration
Outline: as §1

Compound | MIC [1] | MIC [2] | MIC [3] | MIC [4] | MIC [5] | MIC [6] | MIC [7] | MIC (Salmonella typhi 901) | MIC [8] | MIC [9] | MIC [10] | MIC [11] | MIC [12] | MIC [13] | MIC [14] | MIC [15] | MIC [16] | MIC [17] | MIC (Proteus vulgaris OX-19) | MIC (Proteus vulgaris HX-19) | also measured
[C-]#[N+]C12CC3(/C=C/C(=O)Nc4cccc([N+](=O)[O-])c4)OC3C1O2 (stereo not drawn) [compound 48] | 0.2 µg/mL (≈ 0.638 µM) | 0.39 µg/mL (≈ 1.24 µM) | 0.1 µg/mL (≈ 0.319 µM) | 25 µg/mL (≈ 79.8 µM) | 25 µg/mL (≈ 79.8 µM) | 0.2 µg/mL (≈ 0.638 µM) | 3.13 µg/mL (≈ 9.99 µM) | 3.13 µg/mL (≈ 9.99 µM) | 0.39 µg/mL (≈ 1.24 µM) | 0.39 µg/mL (≈ 1.24 µM) | 3.13 µg/mL (≈ 9.99 µM) | 6.25 µg/mL (≈ 20 µM) | 6.25 µg/mL (≈ 20 µM) | > 200 µg/mL | > 200 µg/mL | > 200 µg/mL | 0.2 µg/mL (≈ 0.638 µM) | 12.5 µg/mL (≈ 39.9 µM) | < 0.05 µg/mL | < 0.05 µg/mL | MIC [18]: 1.56 µg/mL (≈ 4.98 µM); MIC [19]: > 200 µg/mL; MIC (Enterobacter cloacae 963): 25 µg/mL (≈ 79.8 µM); MIC [20]: < 0.05 µg/mL; MIC [21]: 0.39 µg/mL (≈ 1.24 µM); MIC [22]: 6.25 µg/mL (≈ 20 µM); MIC [23]: < 0.2 µg/mL; MIC [24]: 3.13 µg/mL (≈ 9.99 µM); MIC [25]: 3.13 µg/mL (≈ 9.99 µM)
[C-]#[N+]C12CC3(/C=C/C(=O)Nc4nccs4)OC3C1O2 (stereo not drawn) [compound 65] | < 0.1 µg/mL | 0.39 µg/mL (≈ 1.42 µM) | < 0.1 µg/mL | 12.5 µg/mL (≈ 45.4 µM) | 6.25 µg/mL (≈ 22.7 µM) | 1.56 µg/mL (≈ 5.67 µM) | 25 µg/mL (≈ 90.8 µM) | 3.13 µg/mL (≈ 11.4 µM) | 1.56 µg/mL (≈ 5.67 µM) | 1.56 µg/mL (≈ 5.67 µM) | 3.13 µg/mL (≈ 11.4 µM) | 12.5 µg/mL (≈ 45.4 µM) | 12.5 µg/mL (≈ 45.4 µM) | > 200 µg/mL | > 200 µg/mL | > 200 µg/mL | 1.56 µg/mL (≈ 5.67 µM) | > 200 µg/mL | 3.13 µg/mL (≈ 11.4 µM) | 0.2 µg/mL (≈ 0.727 µM) | MIC [26]: 12.5 µg/mL (≈ 45.4 µM); MIC [18]: 100 µg/mL (≈ 363 µM); MIC [19]: > 200 µg/mL; MIC (Enterobacter cloacae 963): > 200 µg/mL; MIC [20]: 0.1 µg/mL (≈ 0.363 µM); MIC [23]: < 0.2 µg/mL; MIC [24]: 12.5 µg/mL (≈ 45.4 µM); MIC [25]: 50 µg/mL (≈ 182 µM)
